Experimental data published in US9328138B2 (priority 2011, dated 2016).

Experiments:
[1] = target: T1, HCV genotype 1b (BK) NS3 modified enzyme with a R155K mutation (Hepatitis C virus genotype 1b, UniProt P26663, R1181K); experiment: HCV NS3 protease time-resolved fluorescence (TRF) assay, genotype 1b R155K; type: biochemical; conditions: Ki 1b R155K, genotype 1b (BK) NS3 R155K; single value
T1 construct: HCV genotype 1b (BK) NS3 modified enzyme
Method in brief: (§1)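 Inhibitor titrations are mixed with NS3/NS4A in pH 7.5 HEPES buffer containing 10 mM DTT and 15% glycerol for 10 min before substrate (25 nM final) is added. After 6 h at room temperature, delayed fluorescence is read and fitted to a four-parameter curve for IC50.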

[2] = target: HCV NS3 protease genotype 3a (3A-1) (Hepatitis C virus genotype 3a, UniProt Q81258); experiment: HCV NS3 protease time-resolved fluorescence (TRF) assay, genotype 3a; type: biochemical; conditions: Ki 3a
Method in brief: as §1

## C=C[C@@H]1C[C@]1(NC(=O)[C@@H]1C[C@@H]2CN1C(=O)[C@H](C(C)(C)C)NC(=O)O[C@@H]1CCC[C@H]1CCCCCc1c(nc3ccccc3c1O)O2)C(=O)NS(=O)(=O)C1(C(=C)C)CC1 [Example 37, (3aR,7S,10S,12R,24aR)-7-tert-butyl-N-[(1R, 2S)-2-ethenyl-1-({[1-(prop-1-en-2-yl)cyclopropyl]sulfonyl}carbamoyl)cyclopropyl]-19-hydroxy-5,8-dioxo-1,2,3,3a,5,6,7,8,11,12,20, 21,22,23,24,24a-hexadecahydro-10H-9,12-methanocyclopenta[18,19][1,10,3,6] dioxadiazacyclononadecino[11,12-b]quinoline-10-carboxamide]
[1]
  Ki: 0.16 nM
[2]
  Ki: 6 nM

## C=C[C@@H]1C[C@]1(NC(=O)[C@@H]1C[C@@H]2CN1C(=O)[C@H](C1CCCC1)NC(=O)O[C@@H]1CCC[C@H]1CC/C=C/Cc1c(nc3ccccc3c1OP(=O)(OCC)OCC)O2)C(=O)NS(=O)(=O)C1CC1 [Example 38, (3aR,7S,10S,12R,21E,24aS)-7-cyclopentyl-10-({(1R,2S)-1-[(cyclopropylsulfonyl)carbamoyl]-2-ethenylcyclopropyl}carbamoyl)-5,8-dioxo-1,2,3,3a,5,6,7,8,11,12,20,23,24,24a-tetradecahydro-10H-9,12-methanocyclopenta[18,19][1,10,3,6]dioxadiazacyclononadecino[11,12-b]quinolin-19-yl diethyl phosphate]
[1]
  Ki: 1.2 nM
[2]
  Ki: 94 nM

## C=C[C@@H]1C[C@]1(NC(=O)[C@@H]1C[C@@H]2CN1C(=O)[C@H](C1CCCC1)NC(=O)O[C@@H]1CCC[C@H]1CC/C=C/Cc1c(nc3ccccc3c1OC(C)=O)O2)C(=O)NS(=O)(=O)C1CC1 [Example 39, (3aR,7S,10S,12R,21E,24aS)-7-cyclopentyl-10-({(1R,2S)-1-[(cyclopropylsulfonyl)carbamoyl]-2-ethenylcyclopropyl}carbamoyl)-5,8-dioxo-1,2,3,3a,5,6,7,8,11,12,20,23,24,24a-tetradecahydro-10H-9,12-methanocyclopenta[18,19][1,10,3,6]dioxadiazacyclononadecino[11,12-b]quinolin-19-yl acetate]
[1]
  Ki: 0.13 nM
[2]
  Ki: 3.5 nM

## C=C[C@@H]1C[C@]1(NC(=O)[C@@H]1C[C@@H]2CN1C(=O)[C@H](C1CCCC1)NC(=O)O[C@@H]1CCC[C@H]1CC/C=C/Cc1c(nc3ccccc3c1OC(=O)C(C)C)O2)C(=O)NS(=O)(=O)C1CC1 [Example 40, (3aR,7S,10S,12R,21E,24aS)-7-cyclopentyl-10-({(1R,2S)-1-[(cyclopropylsulfonyl)carbamoyl]-2-ethenylcyclopropyl}carbamoyl)-5,8-dioxo-1,2,3,3a,5,6,7,8,11,12,20,23,24,24a-tetradecahydro-10H-9,12-methanocyclopenta[18,19][1,10,3,6]dioxadiazacyclononadecino[11,12-b]quinolin-19-yl 2-methylpropanoate]
[1]
  Ki: 1.3 nM
[2]
  Ki: 27 nM

## C=C[C@@H]1C[C@]1(NC(=O)[C@@H]1C[C@@H]2CN1C(=O)[C@H](C1CCCC1)NC(=O)O[C@@H]1CCC[C@H]1CC/C=C/Cc1c(nc3ccccc3c1OC(=O)CC(C)C)O2)C(=O)NS(=O)(=O)C1CC1 [Example 41, (3aR,7S,10S,12R,21E,24aS)-7-cyclopentyl-10-({(1R,2S)-1-[(cyclopropylsulfonyl)carbamoyl]-2-ethenylcyclopropyl}carbamoyl)-5,8-dioxo-1,2,3,3a,5,6,7,8,11,12,20,23,24,24a-tetradecahydro-10H-9,12-methanocyclopenta[18,19][1,10,3,6]dioxadiazacyclononadecino[11,12-b]quinolin-19-yl 3-methylbutanoate]
[1]
  Ki: 6.6 nM
[2]
  Ki: 73 nM

## C=C[C@@H]1C[C@]1(NC(=O)[C@@H]1C[C@@H]2CN1C(=O)[C@H](C1CCCC1)NC(=O)O[C@@H]1CCC[C@H]1CC/C=C/Cc1c(nc3ccccc3c1OCCN1CCOC1=O)O2)C(=O)NS(=O)(=O)C1CC1 [Example 42, (3aR,7S,10S,12R,21E,24aS)-7-cyclopentyl-N-{(1R,2S)-1-[(cyclopropylsulfonyl)carbamoyl]-2-ethenylcyclopropyl}-5,8-dioxo-19-[2-(2-oxo-1,3-oxazolidin-3-yl)ethoxy]-1,2,3,3a,5,6,7,8,11,12,20,23,24,24a-tetradecahydro-10H-9,12-methanocyclopenta[18,19][1,10,3,6]dioxadiazacyclononadecino[11,12-b]quinoline-10-carboxamide]
[1]
  Ki: 0.073 nM
[2]
  Ki: 1.5 nM

## C=C[C@@H]1C[C@]1(NC(=O)[C@@H]1C[C@@H]2CN1C(=O)[C@H](C1CCCC1)NC(=O)O[C@@H]1CCC[C@H]1CC/C=C/Cc1c(nc3ccccc3c1OCCc1ccccn1)O2)C(=O)NS(=O)(=O)C1CC1 [Example 43, (3aR,7S,10S,12R,21E,24aS)-7-cyclopentyl-N-{(1R,2S)-1-[(cyclopropylsulfonyl)carbamoyl]-2-ethenylcyclopropyl}-5,8-dioxo-19-[2-(pyridin-2-yl)ethoxy]-1,2,3,3a, 5,6,7,8,11,12,20,23,24,24a-tetradecahydro-10H-9,12-methanocyclopenta [18,19][1,10,3,6]dioxadiazacyclonona decino[11,12-b]quinoline-10-carboxamide]
[1]
  Ki: 0.28 nM
[2]
  Ki: 9.9 nM

## C=C[C@@H]1C[C@]1(NC(=O)[C@@H]1C[C@@H]2CN1C(=O)[C@H](C1CCCC1)NC(=O)O[C@@H]1CCC[C@H]1CC/C=C/Cc1c(nc3ccccc3c1OCCn1cccn1)O2)C(=O)NS(=O)(=O)C1CC1 [Example 44, (3aR,7S,10S,12R,21E,24aS)-7-cyclopentyl-N-{(1R,2S)-1-[(cyclopropylsulfonyl)carbamoyl]-2-ethenylcyclopropyl}-5,8-dioxo-19-[2-(1H-pyrazol-1-yl)ethoxy]-1,2,3,3a,5,6,7,8,11,12,20,23,24,24a-tetra decahydro-10H-9,12-methanocyclopenta[18,19][1,10,3,6]dioxadiazacyclonona decino[11,12-b] quinoline-10-carboxamide]
[1]
  Ki: 0.25 nM
[2]
  Ki: 7.9 nM

## C=C[C@@H]1C[C@]1(NC(=O)[C@@H]1C[C@@H]2CN1C(=O)[C@H](C(C)(C)C)NC(=O)O[C@@H]1CCC[C@H]1CC/C=C/Cc1c(nc3ccccc3c1OCCCN1CCCCC1)O2)C(=O)NS(=O)(=O)C1CC1 [Example 45, (3aR,7S,10S,12R,21E,24aS)-7-tert-butyl-N-{(1R,2S)-1-[(cyclopropylsulfonyl)carbamoyl]-2-ethenylcyclopropyl}-5,8-dioxo-19-[3-(piperidin-1-yl)propoxy]-1,2,3,3a,5,6,7,8,11, 12,20,23,24,24a-tetradecahydro-10H-9,12-methanocyclopenta[18,19][1,10,3,6]dioxa diazacyclononadecino[11,12-b]quinoline-10-carboxamide]
[1]
  Ki: 0.1 nM
[2]
  Ki: 0.5 nM

## C=C[C@@H]1C[C@]1(NC(=O)[C@@H]1C[C@@H]2CN1C(=O)[C@H](C1CCCC1)NC(=O)O[C@@H]1CCC[C@H]1CC/C=C/Cc1c(nc3ccccc3c1OCCOC)O2)C(=O)NS(=O)(=O)C1CC1 [Example 46, (3aR,7S,10S,12R,21E,24aS)-7-cyclopentyl-N-{(1R,2S)-1-[(cyclopropylsulfonyl)carbamoyl]-2-ethenylcyclopropyl}-19-(2-methoxyethoxy)-5,8-dioxo-1,2,3,3a,5,6,7,8,11,12,20,23,24,24a-tetradecahydro-10H-9,12-methanocyclopenta[18,19][1,10,3,6] dioxadiazacyclononadecino[11,12-b] quinoline-10-carboxamide]
[1]
  Ki: 0.15 nM
[2]
  Ki: 4 nM

## C=C[C@@H]1C[C@]1(NC(=O)[C@@H]1C[C@@H]2CN1C(=O)[C@H](C1CCCC1)NC(=O)O[C@@H]1CCC[C@H]1CC/C=C/Cc1c(nc3ccccc3c1OCCCOCCOC)O2)C(=O)NS(=O)(=O)C1CC1 [Example 47, (3aR,7S,10S,12R,21E,24aS)-7-cyclopentyl-N-{(1R,2S)-1-[(cyclopropylsulfonyl)carbamoyl]-2-ethenylcyclopropyl}-19-[3-(2-methoxyethoxy)propoxy]-5,8-dioxo-1,2,3,3a,5,6,7,8,11,12,20,23,24,24a-tetradeca-hydro-10H-9,12-methanocyclopenta[18,19] [1,10,3,6]dioxadiazacyclononadecino[11, 12-b]quinoline-10-carboxamide]
[1]
  Ki: 0.12 nM
[2]
  Ki: 2.9 nM

## C=C[C@@H]1C[C@]1(NC(=O)[C@@H]1C[C@@H]2CN1C(=O)[C@H](C1CCCC1)NC(=O)O[C@@H]1CCC[C@H]1CC/C=C/Cc1c(nc3ccccc3c1OCCCN1CCNC1=O)O2)C(=O)NS(=O)(=O)C1(C)CC1 [Example 48, (3aR,7S,10S,12R,21E,24aS)-7-cyclopentyl-N-[(1R,2S)-2-ethenyl-1-{[(1-methyl-cyclopropyl)sulfonyl]carbamoyl}cyclopropyl]-5,8-dioxo-19-[3-(2-oxoimidazolidin-1-yl)propoxy]-1,2,3,3a,5,6,7,8,11,12,20,23,24,24a-tetradecahydro-10H-9,12-methanocyclopenta [18,19][1,10,3,6]dioxadiazacyclononadecino [11,12-b]quinoline-10-carboxamide]
[1]
  Ki: 0.12 nM
[2]
  Ki: 0.76 nM

## C=C[C@@H]1C[C@]1(NC(=O)[C@@H]1C[C@@H]2CN1C(=O)[C@H](C1CCCC1)NC(=O)O[C@@H]1CCC[C@H]1CC/C=C/Cc1c(nc3ccccc3c1OCCC(C)(C)O)O2)C(=O)NS(=O)(=O)C1(C)CC1 [Example 49, (3aR,7S,10S,12R,21E,24aS)-7-cyclopentyl-N-[(1R,2S)-2-ethenyl-1-{[(1-methylcyclopropyl)sulfonyl]carbamoyl}cyclopropyl]-19-(3-hydroxy-3-methylbutoxy)-5,8-dioxo-1,2,3,3a,5,6,7,8,11,12,20,23,24,24a-tetradecahydro-10H-9,12-methanocyclo penta[18,19][1,10,3,6]dioxadiazacyclo nonadecino[11,12-b]quinoline-10-carboxamide]
[1]
  Ki: 0.16 nM
[2]
  Ki: 1.5 nM
